The record followed here is patent publication US20180265515A1 (Genentech, Inc., priority 2015, published 2018).

Experiment [1] addresses T1, isolated recombinant JAK2 kinase domain (Homo sapiens, UniProt O60674).
T1 construct: The activity of the isolated recombinant JAK1 and JAK2 kinase domain was measured
Put plainly: JAK2 enzyme assay (Caliper LabChip, Ki). Conditions: 25 μM ATP. It counts as biochemical. How it is done:
(§1) JAK Enzyme Assays were Carried Out as Follows:
(§2) The activity of the isolated recombinant JAK1 and JAK2 kinase domain was measured by monitoring phosphorylation of a peptide derived from JAK3 (Val-Ala-Leu-Val-Asp-Gly-Tyr-Phe-Arg-Leu-Thr-Thr, fluorescently labeled on the N-terminus with 5-carboxyfluorescein) using the Caliper LabChip® technology (Caliper Life Sciences, Hopkinton, Mass.). […] Reactions were incubated at 22° C. in 384-well polypropylene microtiter plates for 30 minutes and then stopped by addition of 25 μL of an EDTA containing solution (100 mM HEPES buffer (pH 7.2), 0.015% Brij-35, 150 mM EDTA), resulting in a final EDTA concentration of 50 mM. After termination of the kinase reaction, the proportion of phosphorylated product was determined as a fraction of total peptide substrate using the Caliper LabChip® 3000 according to the manufacturer's specifications. Ki values were then determined using the Morrison tight binding model (Morrison, J. F., Biochim. Biophys. Acta. 185:269-296 (1969); William, J. W. and Morrison, J. F., Meth. Enzymol., 63:437-467 (1979)) modified for ATP-competitive inhibition [Ki=Ki,app/(1+[ATP]/Km,app)].

Experiment [2] deals with T2, isolated recombinant JAK1 kinase domain (Homo sapiens, UniProt P23458).
T2 construct: The activity of the isolated recombinant JAK1 and JAK2 kinase domain was measured
T2 sequence (P23458 875-1153 limits assumed): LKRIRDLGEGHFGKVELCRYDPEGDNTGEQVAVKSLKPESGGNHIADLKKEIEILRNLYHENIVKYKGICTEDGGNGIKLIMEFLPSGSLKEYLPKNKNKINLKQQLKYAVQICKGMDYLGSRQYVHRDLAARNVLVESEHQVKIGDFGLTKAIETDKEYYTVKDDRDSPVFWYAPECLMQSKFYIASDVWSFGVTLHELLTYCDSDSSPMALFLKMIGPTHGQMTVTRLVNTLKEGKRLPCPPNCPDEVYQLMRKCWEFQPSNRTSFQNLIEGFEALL
Put plainly: JAK1 enzyme assay (Caliper LabChip, Ki). It counts as biochemical. Conditions: recombinant JAK1 kinase domain, 25 μM ATP. How it is done: as §1, §2

Experiment [3] deals with JAK1-dependent STAT6 phosphorylation downstream of IL-13 stimulation in BEAS-2B human bronchial epithelial cells. Put plainly: JAK1 pathway assay in BEAS-2B cells (IL-13 stimulated STAT6 phosphorylation, MSD). It counts as cell-based. Conditions: read-out: P-STAT6 BEAS2B + IL13 IC50. How it is done:
JAK1 Pathway Assay in Cell Lines was Carried Out as Follows:
Inhibitor potency (EC50) was determined in cell-based assays designed to measure JAK1 dependent STAT phosphorylation. As noted above, inhibition of IL-4, IL-13, and IL-9 signaling by blocking the Jak/Stat signaling pathway can alleviate asthmatic symptoms in pre-clinical lung inflammation models (Mathew et al., 2001, J Exp Med 193(9): 1087-1096; Kudlacz et. al., 2008, Eur J. Pharmacol 582(1-3): 154-161).
In one assay approach, TF-1 human erythroleukemia cells obtained from the American Type Culture Collection (ATCC; Manassas, Va.) were used to measure JAK1-dependent STAT6 phosphorylation downstream of IL-13 stimulation. Prior to use in the assays, TF-1 cells were starved of GM-CSF overnight in OptiMEM medium (Life Technologies, Grand Island, N.Y.) supplemented with 0.5% charcoal/dextran stripped fetal bovine serum (FBS), 0.1 mM non-essential amino acids (NEAA), and 1 mM sodium pyruvate. The assays were run in 384-well plates in serum-free OptiMEM medium using 300,000 cells per well. In a second assay approach, BEAS-2B human bronchial epithelial cells obtained from ATCC were plated at 100,000 cells per well of a 96-well plate one day prior to the experiment. The BEAS-2B assay was run in complete growth medium (bronchial epithelial basal medium plus bulletkit; Lonza; Basel, Switzerland).
Test compounds were serially diluted 1:2 in DMSO and then diluted 1:50 in medium just before use. Diluted compounds were added to the cells, for a final DMSO concentration of 0.2%, and incubated for 30 min (for the TF-1 assay) or 1 hr (for the BEAS-2B assay) at 37° C. Then, cells were stimulated with human recombinant cytokine at their respective EC90 concentrations, as previously determined for each individual lot. Cells were stimulated with IL-13 (R&D Systems, Minneapolis, Minn.) for 15 min at 37° C. The TF-1 cell reactions were stopped by the direct addition of 10× lysis buffer (Cell Signaling Technologies, Danvers, Mass.), whereas the BEAS-2B cell incubations were halted by the removal of medium and addition of 1× lysis buffer. The resultant samples were frozen in the plates at −80° C. Compound mediated inhibition of STAT6 phosphorylation was measured in the cell lysates using MesoScale Discovery (MSD) technology (Gaithersburg, Md.). EC50 values were determined as the concentration of compound required for 50% inhibition of STAT phosphorylation relative to that measured for the DMSO control.

T1 sequence (O60674 849-1124 limits assumed): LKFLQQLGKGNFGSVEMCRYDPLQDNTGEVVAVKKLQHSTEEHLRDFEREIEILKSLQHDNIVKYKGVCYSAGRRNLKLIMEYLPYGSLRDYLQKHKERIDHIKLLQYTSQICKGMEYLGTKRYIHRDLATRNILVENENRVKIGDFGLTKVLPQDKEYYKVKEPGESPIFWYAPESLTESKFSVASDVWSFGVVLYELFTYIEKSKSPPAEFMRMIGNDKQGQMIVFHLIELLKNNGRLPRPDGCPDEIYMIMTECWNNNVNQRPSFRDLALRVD

With `CSc1ccc(OC(F)F)c(-c2n[nH]cc2NC(=O)c2cnn3cccnc23)c1` [Example 1, N-(3-(2-(difluoromethoxy)-5-(methylthio)phenyl)-1H-pyrazol-4-yl)pyrazolo[1,5-a]pyrimidine-3-carboxamide], the values for the Ki in experiment [1] and in experiment [2] were 0.041 nM and 0.079 nM, respectively. In experiment [3], the IC50 is 2.6 nM.

As to `CSc1ccc(OC(F)F)c(-c2nn(CC(=O)N3CCC(N(C)CCC#N)CC3)cc2NC(=O)c2cnn3cccnc23)c1` [Example 2, N-[1-[2-[4-[2-cyanoethyl(methyl)amino]-1-piperidyl]-2-oxo-ethyl]-3-[2-(difluoromethoxy)-5-methylsulfanyl-phenyl]pyrazol-4-yl]pyrazolo[1,5-a]pyrimidine-3-carboxamide], the Ki came out at 0.42 nM in experiment [1] and 0.28 nM in experiment [2]. The IC50 in experiment [3] amounted to 25 nM.

For `C[S+]([O-])c1ccc(OC(F)F)c(-c2n[nH]cc2NC(=O)c2cnn3cccnc23)c1` (stereo not drawn) [Example 3, N-[3-[2-(difluoromethoxy)-5-methylsulfinyl-phenyl]-1H-pyrazol-4-yl]pyrazolo[1,5-a]pyrimidine-3-carboxamide], the Ki in experiment [1] worked out at 0.57 nM; in experiment [2], 1.7 nM. For the same compound, the concentration for half-maximal inhibition (IC50) in experiment [3] stood at 430 nM.

In the case of `CS(=O)(=O)c1ccc(OC(F)F)c(-c2n[nH]cc2NC(=O)c2cnn3cccnc23)c1` [Example 4, N-[3-[2-(difluoromethoxy)-5-methylsulfonyl-phenyl]-1H-pyrazol-4-yl]pyrazolo[1,5-a]pyrimidine-3-carboxamide], the figures for the Ki in experiment [1] and in experiment [2] were 0.16 nM and 0.45 nM, respectively. For the same compound, the IC50 in experiment [3] came out at 35 nM.

Take `CSc1ccc(OC(F)F)c(-c2nn(CC(=O)N3CCC(N4CCOCC4)CC3)cc2NC(=O)c2cnn3cccnc23)c1` [Example 5, N-(3-(2-(difluoromethoxy)-5-(methylthio)phenyl)-1-(2-(4-morpholinopiperidin-1-yl)-2-oxoethyl)-1H-pyrazol-4-yl)pyrazolo[1,5-a]pyrimidine-3-carboxamide]: the Ki worked out at 0.4 nM in experiment [1] and 0.29 nM in experiment [2]. Also, in experiment [3], the IC50 was found to be 15 nM.

For `CCN1CCN(C(=O)Cn2cc(NC(=O)c3cnn4cccnc34)c(-c3cc(SC)ccc3OC(F)F)n2)CC1` [Example 6, N-[3-[2-(difluoromethoxy)-5-methylsulfanyl-phenyl]-1-[2-(4-ethylpiperazin-1-yl)-2-oxo-ethyl]pyrazol-4-yl]pyrazolo[1,5-a]pyrimidine-3-carboxamide], the results for the Ki in experiment [1] and in experiment [2] were 0.61 nM and 0.49 nM, respectively. In experiment [3], the IC50 amounted to 18 nM.

Consider `CSc1ccc(OC(F)F)c(-c2nn(CC(=O)N3CCC(CN4CCOCC4)CC3)cc2NC(=O)c2cnn3cccnc23)c1` [Example 7, N-[3-[2-(difluoromethoxy)-5-methylsulfanyl-phenyl]-1-[2-[4-(morpholinomethyl)-1-piperidyl]-2-oxo-ethyl]pyrazol-4-yl]pyrazolo[1,5-a]pyrimidine-3-carboxamide], for which the values for the Ki in experiment [1] and in experiment [2] were 0.49 nM and 0.3 nM, respectively. Also, the IC50 in experiment [3] was determined as 4.8 nM.

`CSc1ccc(OC(F)F)c(-c2nn(CC(=O)N3CCC(NCCC#N)CC3)cc2NC(=O)c2cnn3cccnc23)c1` [Example 8, N-[1-[2-[4-(2-cyanoethylamino)-1-piperidyl]-2-oxo-ethyl]-3-[2-(difluoromethoxy)-5-methylsulfanyl-phenyl]pyrazol-4-yl]pyrazolo[1,5-a]pyrimidine-3-carboxamide]: the Ki worked out at 0.39 nM in experiment [1] and 0.29 nM in experiment [2]. Moreover, the IC50 in experiment [3] was 18 nM.

With `CSc1ccc(OC(F)F)c(-c2nn([C@H]3CCCNC3)cc2NC(=O)c2cnn3cccnc23)c1` [Example 9, N-[3-[2-(difluoromethoxy)-5-methylsulfanyl-phenyl]-1-[(3S)-3-piperidyl]pyraxol-4-yl]pyrazolo[1,5-a]pyrimidine-3-carboxamide], the Ki stood at 0.28 nM in experiment [1] and 0.44 nM in experiment [2]. For the same compound, the IC50 in experiment [3] worked out at 5.2 nM.

For the compound `CSc1ccc(OC(F)F)c(-c2nn(CCN[C@H]3CCOC3)cc2NC(=O)c2cnn3cccnc23)c1` [Example 10, N-[3-[2-(difluoromethoxy)-5-methylsulfanyl-phenyl]-1-[2-[[(3S)-tetrahydrofuran-3-yl]amino]ethyl]pyrazol-4-yl]pyrazolo[1,5-a]pyrimidine-3-carboxamide], the figures for the Ki in experiment [1] and in experiment [2] were 0.27 nM and 0.49 nM, respectively. Further, the IC50 in experiment [3] came to 8.8 nM.

In the case of `CSc1ccc(OC(F)F)c(-c2nn(CCN[C@@H]3CCOC3)cc2NC(=O)c2cnn3cccnc23)c1` [Example 11, (R)—N-(3-(2-(difluoromethoxy)-5-(methylthio)phenyl)-1-(2-((tetrahydrofuran-3-yl)amino)ethyl)-1H-pyrazol-4-yl)pyrazolo[1,5-a]pyrimidine-3-carboxamide], the Ki turned out to be 0.21 nM in experiment [1] and 0.32 nM in experiment [2]. Besides, the IC50 in experiment [3] came to 5.9 nM.

On to `CSc1ccc(OC(F)F)c(-c2nn([C@H]3CCCN(C)C3)cc2NC(=O)c2cnn3cccnc23)c1` [Example 12, (S)—N-(3-(2-(difluoromethoxy)-5-(methylthio)phenyl)-1-(1-methylpiperidin-3-yl)-1H-pyrazol-4-yl)pyrazolo[1,5-a]pyrimidine-3-carboxamide], for which the figures for the Ki in experiment [1] and in experiment [2] were 0.32 nM and 0.41 nM, respectively. Moreover, in experiment [3], the IC50 came out at 6 nM.

Turning to `CSc1ccc(OC(F)F)c(-c2nn(CC(=O)N3CCC(N(C)CC(=O)N(C)C)CC3)cc2NC(=O)c2cnn3cccnc23)c1` [Example 13, N-[3-[2-(difluoromethoxy)-5-methylsulfanyl-phenyl]-1-[2-[4-[[2-(dimethylamino)-2-oxo-ethyl]-methyl-amino]-1-piperidyl]-2-oxo-ethyl]pyrazol-4-yl]pyrazolo[1,5-a]pyrimidine-3-carboxamide], the Ki was determined as 0.9 nM in experiment [1] and 0.44 nM in experiment [2]. The IC50 in experiment [3] stood at 57 nM.

For `CSc1ccc(OC(F)F)c(-c2nn(CC(=O)N3CCC(N(C)CC(=O)N4CCCC4)CC3)cc2NC(=O)c2cnn3cccnc23)c1` [Example 14], the Ki in experiment [1] worked out at 0.68 nM; in experiment [2] it was 0.32 nM. The IC50 in experiment [3] came to 89 nM.

In the case of `CSc1ccc(OC(F)F)c(-c2nn(CC(=O)N3CCC(N4CCNC(=O)C4)CC3)cc2NC(=O)c2cnn3cccnc23)c1` [Example 15, N-[3-[2-(difluoromethoxy)-5-methylsulfanyl-phenyl]-1-[2-oxo-2-[4-(3-oxopiperazin-1-yl)-1-piperidyl]ethyl]pyrazol-4-yl]pyrazolo[1,5-a]pyrimidine-3-carboxamide], the figures for the Ki in experiment [1] and in experiment [2] were 0.38 nM and 0.28 nM, respectively. Also, in experiment [3], the IC50 was 310 nM.

For the compound `CSc1ccc(OC(F)F)c(-c2nn(CC(=O)N3CCN(CCN4CCOCC4)CC3)cc2NC(=O)c2cnn3cccnc23)c1` [Example 16, N-[3-[2-(difluoromethoxy)-5-methylsulfanyl-phenyl]-1-[2-[4-(2-morpholinoethyl)piperazin-1-yl]-2-oxo-ethyl]pyrazol-4-yl]pyrazolo[1,5-a]pyrimidine-3-carboxamide], the Ki in experiment [1] worked out at 0.5 nM; in experiment [2], 0.39 nM. Moreover, the IC50 in experiment [3] amounted to 18 nM.

What is called Ki is the dissociation constant of the complex between target and ligand, obtained from inhibition or displacement. Broadly, the IC50 is the concentration at which inhibition is half-maximal.
